Experimental data published in the NIST ThermoML archive (doi:10.1021/acs.jced.6b00026).

Details: Liquid, Buoyancy - hydrostatic balance with magnetic suspension - one sinker

CCCCCCCCCCC [undecane]
Details | mass density [kg/m3]
313.17 K, 19009 kPa | 741.21
313.18 K, 9997 kPa | 734.69
313.19 K, 12016 kPa | 736.18
313.19 K, 18013 kPa | 740.5
313.22 K, 14009 kPa | 737.62
313.23 K, 16006 kPa | 739.05
313.24 K, 8029 kPa | 733.14
323.18 K, 19002 kPa | 734.54
323.19 K, 16026 kPa | 732.35
323.19 K, 17995 kPa | 733.8
323.22 K, 10009 kPa | 727.67
323.23 K, 12003 kPa | 729.24
323.23 K, 14022 kPa | 730.8
323.24 K, 7997 kPa | 726.03
333.12 K, 16003 kPa | 725.32
333.12 K, 17990 kPa | 726.87
333.13 K, 12007 kPa | 722.07
333.14 K, 8001 kPa | 718.68
333.14 K, 19027 kPa | 727.66
333.15 K, 14012 kPa | 723.7
333.16 K, 10001 kPa | 720.38
343.25 K, 13005 kPa | 716
343.25 K, 16996 kPa | 719.36
343.26 K, 11021 kPa | 714.27
343.26 K, 14019 kPa | 716.86
343.27 K, 15997 kPa | 718.51
343.27 K, 18006 kPa | 720.27
343.28 K, 11999 kPa | 715.12
343.28 K, 19019 kPa | 720.98
343.29 K, 7989 kPa | 711.51
343.29 K, 9998 kPa | 713.33
343.3 K, 14998 kPa | 717.66
353.16 K, 12003 kPa | 708.19
353.31 K, 11002 kPa | 707.25
353.31 K, 17012 kPa | 712.63
353.32 K, 13007 kPa | 709.08
353.32 K, 14999 kPa | 710.86
353.32 K, 19024 kPa | 714.35
353.33 K, 7993 kPa | 704.36
353.33 K, 14003 kPa | 709.98
353.33 K, 18010 kPa | 713.48
353.34 K, 16001 kPa | 711.73
353.35 K, 9996 kPa | 706.27
